From article PMC12775124, “CUL4A-DDB1-DCAF10 is an N-recognin for N-terminally acetylated Src kinases” (Nature Communications, 2026)
Where two headings read alike, the source gives them in different places. Values belong to the substance of their own block, whether it stands above or below them.

Experiments:
DCAF10 = test: Peptide pull-down with quantitative MS, HeLa lysate, DCAF10; assay type: binding, human (HeLa)
human NatA = molecular target: T1, human NatA (Homo sapiens, UniProt P41227+Q9BXJ9); test: In vitro Nt-acetylation assay (NatA, CPM fluorescence); assay type: biochemical
T1 construct: Human NatA (hNatA) full-length (FL) was cloned; made in house; host or cells: Tnao38 insect cells (baculovirus, pFL vector)
T1 sequence (P41227 1-235): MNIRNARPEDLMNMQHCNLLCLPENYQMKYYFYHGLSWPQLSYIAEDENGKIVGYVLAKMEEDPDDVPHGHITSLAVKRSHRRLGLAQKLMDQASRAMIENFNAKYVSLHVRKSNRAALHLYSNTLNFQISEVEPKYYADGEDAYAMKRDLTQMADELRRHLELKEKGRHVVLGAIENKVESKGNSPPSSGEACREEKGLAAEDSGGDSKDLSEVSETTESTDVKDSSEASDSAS
T1 sequence (Q9BXJ9 1-866 partner): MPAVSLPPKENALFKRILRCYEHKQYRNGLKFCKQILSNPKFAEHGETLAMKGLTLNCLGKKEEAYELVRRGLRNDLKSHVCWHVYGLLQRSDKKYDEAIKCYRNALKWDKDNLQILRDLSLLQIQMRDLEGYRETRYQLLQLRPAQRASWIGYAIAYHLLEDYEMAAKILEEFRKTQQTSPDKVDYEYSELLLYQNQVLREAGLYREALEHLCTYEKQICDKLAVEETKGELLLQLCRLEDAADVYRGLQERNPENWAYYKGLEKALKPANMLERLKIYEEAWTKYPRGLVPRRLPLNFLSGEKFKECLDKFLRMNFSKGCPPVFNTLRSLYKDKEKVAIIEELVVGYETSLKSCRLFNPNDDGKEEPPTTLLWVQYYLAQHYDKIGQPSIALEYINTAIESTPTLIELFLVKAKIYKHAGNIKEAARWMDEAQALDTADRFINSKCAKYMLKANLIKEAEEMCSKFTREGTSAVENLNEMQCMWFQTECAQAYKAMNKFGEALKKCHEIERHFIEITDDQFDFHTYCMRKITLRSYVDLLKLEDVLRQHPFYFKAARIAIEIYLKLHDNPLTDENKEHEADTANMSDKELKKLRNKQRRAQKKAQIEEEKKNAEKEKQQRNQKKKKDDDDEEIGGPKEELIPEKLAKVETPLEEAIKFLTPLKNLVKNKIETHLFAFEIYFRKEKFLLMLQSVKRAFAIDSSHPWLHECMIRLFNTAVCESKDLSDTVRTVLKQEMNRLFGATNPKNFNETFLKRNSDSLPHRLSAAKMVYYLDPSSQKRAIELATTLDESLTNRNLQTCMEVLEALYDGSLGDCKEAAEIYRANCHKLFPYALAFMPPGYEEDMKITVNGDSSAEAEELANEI
Protocol: Gly-starting proteins can be substrates of the Nt-acetyltransferase NatA[3],[21]. Having established direct DCAF10 binding to Ac-Gly N-termini, we next asked whether SFK N-termini are bona fide NatA substrates. We developed an in vitro Nt-acetylation assay comprising purified NatA, acetyl-CoA (Ac-CoA), and the peptide of interest (Fig. 3a, b)[33]. Acetyl-group transfer was assessed using CPM [7-(diethylamino)−3-(4′-maleimidophenyl)−4-methylcoumarin], which reacts specifically with free thiol groups to produce a highly fluorescent product (excitation: 390 nm; emission: 479 nm), allowing detection of CoA production after acetyl-group transfer to the peptide (Supplementary Fig. 4e). We optimized the conditions to determine Michaelis–Menten kinetics for NatA-mediated Nt-acetylation with a target peptide ([…]) previously used for NatA assays and co-crystallization (Supplementary Fig. 4f)[34]. […] Likely, this was due to a Km even higher than that of Src, and implying that the peptide concentrations in the assay might have been insufficient for the reaction to proceed with an appreciable rate. […] Negative controls (COX17 and Ac-Lyn) produced low signals. […] Given the direct association of NatA with SFK N-termini at the ribosomal exit tunnel, however, we surmise that Nt-acetylation of SFKs in cells may proceed despite these unfavorable kinetic parameters.
The assay was performed essentially as described previously. Briefly, peptide substrates (Supplementary Table 1) were incubated with purified human NatA and acetyl-CoA; acetylation was quantified by CPM fluorescence (CoA detection), and Michaelis–Menten parameters were derived from 8-point 1:1 dilution series within the linear range (n = 4 independent enzymatic assays). Full buffer compositions, reagent concentrations, plate format, instrument settings, controls, and fitting procedures are provided in the Supplementary Methods and Tables. […]
301 Cloning, expression, and purification of human NatA
302 Human NatA (hNatA) full-length (FL) was cloned in a pFL vector expressing both
303 genes, NAA15 with a 6× C-term histidine tag (NAA15-6xHIS) and NAA102. The
304 expression was carried out in insect cells (Tnao38) for 72 h infected 1:20 with
305 baculovirus. Washed cell pellets were lysed by sonication in a lysis buffer containing 200
306 mM NaCl, 50 mM HEPES pH 8.0, 20 mM Imidazole, and 2 mM TCEP. The protein
307 purification was performed as a three-step purification, starting with an affinity nickel
308 column, followed by an ion-exchange column with a gradient of 50–300 mM NaCl, and
309 finished with size exclusion chromatography (SEC) using an S200 10/300 column. The
310 main peaks were collected, and the protein was concentrated in the SEC buffer (150 mM
311 NaCl, 50 mM HEPES pH 8.0, 1 mM EDTA). The purified hNatA was flash-frozen in
312 liquid nitrogen and stored at -80°C.
314 In vitro Nt-acetylation assay
315 The method has been described in detail previously2. Briefly, different peptides
316 (Supplementary Table 1) and concentrations (an eight-step, 1:1 dilution series for
317 Michaelis-Menten curves) as indicated were incubated with 20 nM hNatA and 80 µM Ac-
318 CoA in reaction buffer (50 mM HEPES pH 8.0, 0.5 mM EDTA, 0.005% CHAPS) for 60
319 (Src) or 120 min (Lyn), at RT in a 384-well microplate (Corning 4514) (n = 4).
320 Afterwards, the enzymatic reaction was stopped by adding 1:1 DMSO with 10 µM (final
321 concentration 5 µM) of the thiol reactive CPM (7-Diethylamino-3-
322 (4'Maleimidylphenyl)4-Methylcoumarin). After 1 h at RT, the readout was performed
323 with a Tecan Spark® Multimode Microplate Reader (excitation 390 nm, emission 479
324 nm). Background values at 0 µM peptide were subtracted, and control reactions omitting
325 NatA or Ac-CoA were performed. Dilution series of CoA incubated with 5 µM CPM were
326 used to generate a linear equation (y = 10.99*x + 81.06) to calculate acetylation velocities
327 for NatA-mediated peptide acetylation. […]

[1] = 20 nM NatA, 80 µM Ac-CoA, pH 8.0, RT, 60 min, CPM fluorescence 390/479 nm, mean ± s.d., n = 4, read-out: Km

Substance: GCITDDGKDSKK [Ac-Lyn^swap, Lyn peptide carrying Thr5-Asp6-Asp7 of THOC7]
log₂ difference Ac-Lyn^swap vs Ac-THOC7^swap, DCAF10 (DCAF10; HeLa lysate, n = 3): −1.23
DCAF10 binding of swap peptide vs its WT (in words) (DCAF10; direct comparisons Ac-Lyn vs Ac-Lyn^swap and Ac-THOC7 vs Ac-THOC7^swap, HeLa lysate): significantly reduced

Substance: GSNKSKPKDAKK [Myr-Src, Nt-peptide of Src, N-myristoylated]
DCAF10 binding, Nt-Ac vs Nt-Myr (in words) (DCAF10; HeLa lysate): no detectable DCAF10 binding

Km (human NatA; [1]): 144 ± 24 µM
Km (human NatA; conclusion: poor NatA substrates, read-out: Km, summary statement): > 100 µM
Km (human NatA; rounded values in Peer Review File, read-out: Km, as given in rebuttal): 143 µM
Substance: GSNKSKPKDAKK [Nt-free Src, Nt-peptide of Src, Nt-free]

Km (human NatA; [1]): 8.4 ± 1.7 µM
Substance: NatA target peptide: target peptide previously used for NatA assays and co-crystallization (SASEAGVRWG) [reference compound]

Substance: PCIKSKGKDSKK [Lyn^G2P, Nt-free Pro mutant Nt-peptide of Lyn]
DCAF10 binding of Nt-mutant peptides (in words) (DCAF10; n = 3 replicates): failed to bind DCAF10 in all replicates

Nt-acetylation by NatA (in words) (human NatA; original assay, peptide up to 160 μM): no detectable acetylation
Nt-acetylation by NatA (in words) (human NatA; starting peptide concentration 1 mM): low signals
Substance: PGLVDSNPAPKK [COX17, Pro-starting peptide from COX17, negative control, reference compound]
